Measured values: ChEMBL document CHEMBL1208724, “A new group of oxime carbamates as reversible inhibitors of fatty acid amide hydrolase” (Bioorg Med Chem Lett, 2010)

Biological target: T1, Fatty-acid amide hydrolase 1 (Mus musculus, UniProt O08914)
T1 sequence (O08914 whole entry): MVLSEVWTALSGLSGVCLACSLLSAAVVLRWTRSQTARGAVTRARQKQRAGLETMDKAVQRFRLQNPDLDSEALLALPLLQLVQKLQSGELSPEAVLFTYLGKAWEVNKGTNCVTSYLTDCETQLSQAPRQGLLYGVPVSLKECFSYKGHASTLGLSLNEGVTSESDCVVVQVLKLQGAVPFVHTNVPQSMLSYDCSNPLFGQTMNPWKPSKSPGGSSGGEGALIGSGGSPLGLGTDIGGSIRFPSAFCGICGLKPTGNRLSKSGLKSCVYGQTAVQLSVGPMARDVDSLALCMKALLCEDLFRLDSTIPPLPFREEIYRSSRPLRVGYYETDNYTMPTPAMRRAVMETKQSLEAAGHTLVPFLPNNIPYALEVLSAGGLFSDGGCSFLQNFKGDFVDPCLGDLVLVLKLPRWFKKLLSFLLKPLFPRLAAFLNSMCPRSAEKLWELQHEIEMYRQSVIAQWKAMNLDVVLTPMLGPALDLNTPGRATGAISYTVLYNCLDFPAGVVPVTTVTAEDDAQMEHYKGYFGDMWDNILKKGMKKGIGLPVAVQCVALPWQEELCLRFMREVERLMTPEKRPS
Test: Inhibition of mouse brain FAAH assessed as conversion of [3H-ethanolamine]AEA to [3H]ethanolamine by scintillation counting

Row | IC50 [nM] | Compound
1 | 69 | C/C(=N\OC(=O)Nc1ccccc1)c1cccc(-c2ccccc2)c1
2 | 760 | C/C(=N\OC(=O)Nc1ccccc1)c1ccc(-c2ccccc2)cc1
3 | 401 | C/C(=N\OC(=O)Nc1cccc2ccccc12)c1ccc(-c2ccccc2)cc1
4 | 112 | C/C(=N\OC(=O)N1CCCCC1)c1cccc(-c2cccs2)c1
5 | 232 | C/C(=N\OC(=O)Nc1ccc2sccc2c1)c1cccc(-c2ccccc2)c1
6 | 116 | CCCCCCCCCCCCNC(=O)O/N=C(\C)c1cccc(-c2cccs2)c1
7 | 84 | C/C(=N\OC(=O)Nc1ccccc1)c1cccc(-c2cccc(C(N)=O)c2)c1
8 | > 25000 | C/C(=N\OC(=O)Nc1ccccc1)c1cccc(-c2cccc(C(=O)NC(=O)Nc3ccccc3)c2)c1
9 | > 1000 | C/C(=N\OC(=O)Nc1cccc2ccccc12)c1ccc(-n2c(C)ccc2C)cc1

Row | Compound | IC50 [nM]
10 | C/C(=N\OC(=O)N(C)C)c1ccc(-c2ccccc2)cc1 | > 50000
